Source: ChEMBL document CHEMBL4371025, “Discovery and evaluation of novel FAAH inhibitors in neuropathic pain model” (Bioorg Med Chem Lett, 2019)
Active and inactive are the calls of the source. The calls are words filed in the database; no cut-off is given here.

Columns and labels:
[1] = Intrinsic metabolic stability in rat liver microsomes assessed as metabolic turnover over per mg protein at 1 uM preincubated for 5 mins followed by NADPH cofactor addition and measured after 30 mins by LC-MS/MS analysis; assay type: ADME, Microsome; settings: 0.5 h
[2] = Intrinsic metabolic stability in human liver microsomes assessed as metabolic turnover rate per mg protein at 1 uM preincubated for 5 mins followed by NADPH cofactor addition and measured after 30 mins by LC-MS/MS analysis; assay type: ADME, Microsome; settings: 0.5 h
[3] = target: T1, Fatty-acid amide hydrolase 1 (Homo sapiens, UniProt O00519); experiment: Inhibition of human transmembrane domain deficient FFAH expressed in Escherichia coli using AAMCA as substrate incubated for 1 min measured for 50 mins by fluorescence assay
T1 sequence (O00519 whole entry): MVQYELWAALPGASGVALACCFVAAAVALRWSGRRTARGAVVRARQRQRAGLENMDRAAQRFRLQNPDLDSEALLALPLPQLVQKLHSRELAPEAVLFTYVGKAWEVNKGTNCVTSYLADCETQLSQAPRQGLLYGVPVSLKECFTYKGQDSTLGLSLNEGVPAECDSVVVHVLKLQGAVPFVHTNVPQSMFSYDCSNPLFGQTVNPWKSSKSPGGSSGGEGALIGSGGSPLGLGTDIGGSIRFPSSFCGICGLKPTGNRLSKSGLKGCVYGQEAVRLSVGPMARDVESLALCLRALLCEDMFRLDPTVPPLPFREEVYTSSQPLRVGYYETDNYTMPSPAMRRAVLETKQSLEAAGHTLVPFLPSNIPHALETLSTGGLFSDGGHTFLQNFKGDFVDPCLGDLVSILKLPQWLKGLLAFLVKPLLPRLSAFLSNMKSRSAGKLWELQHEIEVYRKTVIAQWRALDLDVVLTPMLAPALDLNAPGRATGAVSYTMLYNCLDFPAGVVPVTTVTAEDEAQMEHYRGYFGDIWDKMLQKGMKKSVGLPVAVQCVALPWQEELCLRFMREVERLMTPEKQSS

[4] = target: T2, Fatty-acid amide hydrolase 1 (Rattus norvegicus, UniProt P97612); experiment: Inhibition of rat FFAH expressed in Escherichia coli using AAMCA as substrate incubated for 1 min measured for 50 mins by fluorescence assay
T2 sequence (P97612 whole entry): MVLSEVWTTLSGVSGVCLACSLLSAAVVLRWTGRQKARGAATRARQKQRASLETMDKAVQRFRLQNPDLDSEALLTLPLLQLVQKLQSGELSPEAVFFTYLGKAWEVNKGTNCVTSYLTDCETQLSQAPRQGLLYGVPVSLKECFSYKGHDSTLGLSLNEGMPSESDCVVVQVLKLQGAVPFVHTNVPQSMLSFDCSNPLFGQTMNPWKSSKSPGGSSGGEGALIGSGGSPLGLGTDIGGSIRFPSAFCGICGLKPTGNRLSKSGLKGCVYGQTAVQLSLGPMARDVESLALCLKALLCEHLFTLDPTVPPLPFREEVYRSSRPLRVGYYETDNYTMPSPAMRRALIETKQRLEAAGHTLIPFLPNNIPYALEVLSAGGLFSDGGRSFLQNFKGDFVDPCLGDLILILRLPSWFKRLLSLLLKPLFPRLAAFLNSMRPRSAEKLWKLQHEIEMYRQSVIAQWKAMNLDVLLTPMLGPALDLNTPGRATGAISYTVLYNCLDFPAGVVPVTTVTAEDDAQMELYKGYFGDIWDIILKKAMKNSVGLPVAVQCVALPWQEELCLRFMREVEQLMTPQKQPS

[5] = target: T3, Fatty-acid amide hydrolase 1 (Homo sapiens) (UniProt O00519); experiment: Reversible inhibition of human transmembrane domain deficient FFAH expressed in Escherichia coli assessed as residual activity at 10 times IC50 using AAMCA as substrate preincubated for 1 hr followed by substrate addition and subsequent 10 fold compound dilution by fluorescence assay relative to control
T3 sequence (whole entry): T1 sequence (O00519 whole entry)

[6] = target: T4, Fatty-acid amide hydrolase 1 (Rattus norvegicus) (UniProt P97612); experiment: Inhibition of rat FFAH expressed in Escherichia coli at 10 uM using AAMCA as substrate incubated for 1 min measured for 50 mins by fluorescence assay relative to control
T4 sequence (whole entry): T2 sequence (P97612 whole entry)

[7] = target: T4, Fatty-acid amide hydrolase 1 (Rattus norvegicus); experiment: Inhibition of rat FFAH expressed in Escherichia coli at 100 nM using AAMCA as substrate incubated for 1 min measured for 50 mins by fluorescence assay relative to control
[8] = system: Rattus norvegicus; experiment: Antihyperalgesic activity in Sprague-Dawley rat model of cisplatin-induced peripheral neuropathy assessed as increase in paw withdrawal latency at 30 mg/kg, po administered once daily via gavage for 6 days measured 24 hrs post last dose by plantar test; assay type: functional, organism-based
[9] = system: Rattus norvegicus; experiment: Antihyperalgesic activity in Sprague-Dawley rat model of cisplatin-induced peripheral neuropathy assessed as increase in paw withdrawal latency at 30 mg/kg, po administered once daily via gavage for 7 days measured 4 hrs post last dose by plantar test; assay type: functional, organism-based
[10] = system: Rattus norvegicus; experiment: Antihyperalgesic activity in Sprague-Dawley rat model of cisplatin-induced peripheral neuropathy assessed as increase in paw withdrawal latency at 30 mg/kg, po administered as single dose via gavage measured 4 hrs post dose by plantar test; assay type: functional, organism-based
[11] = system: Rattus norvegicus; experiment: Antihyperalgesic activity in Sprague-Dawley rat model of cisplatin-induced peripheral neuropathy assessed as increase in paw withdrawal latency at 3 mg/kg, po administered as single dose via gavage measured 4 hrs post dose by plantar test; assay type: functional, organism-based
[12] = system: Rattus norvegicus; experiment: Antihyperalgesic activity in Sprague-Dawley rat model of cisplatin-induced peripheral neuropathy assessed as increase in paw withdrawal latency at 10 mg/kg, po administered once daily via gavage for 7 days measured 4 hrs post last dose by plantar test; assay type: functional, organism-based
[13] = Oral bioavailability in Sprague-Dawley rat at 10 mg/kg administered as single dose via gavage by LC-MS/MS analysis; assay type: ADME, organism-based; settings: in vivo
[14] = Volume of distribution at steady state in Sprague-Dawley rat at 1 mg/kg, iv administered as single dose by LC-MS/MS analysis; assay type: ADME, organism-based; settings: in vivo, read-out: Vdss
[15] = AUC (0 to 48 hrs) in plasma of Sprague-Dawley rat at 10 mg/kg, po administered as single dose via gavage by LC-MS/MS analysis; assay type: ADME, organism-based; parameters: time < 48 hr, dose 10 mg/kg, route oral
[16] = Cmax in Sprague-Dawley rat at 10 mg/kg, po administered as single dose via gavage by LC-MS/MS analysis; assay type: ADME, organism-based; parameters: dose 10 mg/kg, route oral; settings: in vivo
[17] = Elimination half life in Sprague-Dawley rat at 1 mg/kg, iv administered as single dose by LC-MS/MS analysis; assay type: ADME, organism-based; settings: in vivo, read-out: beta t1/2 (converted)
[18] = AUC (0 to 48 hrs) in Sprague-Dawley rat at 1 mg/kg, iv administered as single dose by LC-MS/MS analysis; assay type: ADME, organism-based; parameters: dose 1 mg/kg, time < 48 hr, route intravenous; settings: in vivo
[19] = Clearance in Sprague-Dawley rat at 1 mg/kg, iv administered as single dose by LC-MS/MS analysis; assay type: ADME, organism-based; settings: in vivo
[20] = system: Rattus norvegicus; experiment: Antihyperalgesic activity in Sprague-Dawley rat model of cisplatin-induced peripheral neuropathy assessed as increase in paw withdrawal latency at 40 mg/kg, po administered once daily via gavage for 7 days measured 4 hrs post last dose by plantar test; assay type: functional, organism-based
[21] = target: T3, Fatty-acid amide hydrolase 1 (Homo sapiens); experiment: Substrate activity at human transmembrane domain deficient FFAH expressed in Escherichia coli assessed as parent compound remaining at 2 times IC50 after 60 mins by MS analysis
[22] = target: T3, Fatty-acid amide hydrolase 1 (Homo sapiens); experiment: Substrate activity at human transmembrane domain deficient FFAH expressed in Escherichia coli assessed as parent compound remaining at 2 times IC50 after 15 mins by MS analysis
[23] = target: T3, Fatty-acid amide hydrolase 1 (Homo sapiens); experiment: Substrate activity at human transmembrane domain deficient FFAH expressed in Escherichia coli assessed as parent compound remaining at 2 times IC50 measured immediately by MS analysis
[24] = target: T3, Fatty-acid amide hydrolase 1 (Homo sapiens); experiment: Reversible inhibition of human transmembrane domain deficient FFAH expressed in Escherichia coli assessed as residual activity at 10 times IC50 using AAMCA as substrate preincubated for 1 hr followed by substrate addition by fluorescence assay relative to control
[25] = target: T3, Fatty-acid amide hydrolase 1 (Homo sapiens); experiment: Substrate activity at human transmembrane domain deficient FFAH expressed in Escherichia coli assessed as parent compound remaining at 2 times IC50 after 30 mins by MS analysis
[26] = Cmax in Sprague-Dawley rat at 3 mg/kg, po administered as single dose via gavage by LC-MS/MS analysis; assay type: ADME, organism-based; parameters: dose 3 mg/kg, route oral; settings: in vivo
[27] = Oral bioavailability in Sprague-Dawley rat at 3 mg/kg administered as single dose via gavage by LC-MS/MS analysis; assay type: ADME, organism-based; settings: in vivo
[28] = AUC (0 to 48 hrs) in Sprague-Dawley rat at 3 mg/kg, po administered as single dose via gavage by LC-MS/MS analysis; assay type: ADME, organism-based; parameters: dose 3 mg/kg, time < 48 hr, route oral; settings: in vivo

Row | SMILES | Drug metabolism [1] [nmol/min/mg] | Drug metabolism [2] [nmol/min/mg] | IC50 [3] [nM] | IC50 [4] [nM] | further results
1 | Nc1ncc(C(=O)NC2CCC(=Cc3cccc(Oc4ccc(C(F)(F)F)cn4)c3)CC2)cc1Cl (racemic) | < 0.04 | 0.06 | 4 | 52 | –
2 | O=C(NC1CCC(=Cc2cccc(Oc3ccc(C(F)(F)F)cn3)c2)CC1)c1cccnc1 (racemic) | 0.06 | 0.06 | 2.2 | – | –
3 | O=C(NC1CCC(=Cc2cccc(Oc3ccc(C(F)(F)F)cn3)c2)CC1)c1ccc(Cl)nc1 (racemic) | 0.04 | 0.06 | 5.1 | 80.7 | –
4 | O=C(NC1CCC(=Cc2cccc(Oc3ccc(C(F)(F)F)cn3)c2)CC1)c1cncnc1 (racemic) | 0.07 | < 0.04 | – | – | –
5 | Nc1ncc(C(=O)N[C@H]2CC/C(=C/c3cccc(Oc4ccc(C(F)(F)F)cn4)c3)CC2)cn1 (centres undefined) | – | – | 83 | 1500 | –
6 | O=C(CCCCCCc1ccccc1)c1ncc(-c2ccccn2)o1 | – | – | – | – | Activity [5]: 30%
7 | Nc1ccc(C(=O)NC2CCC(=Cc3cccc(Oc4ccc(C(F)(F)F)cn4)c3)CC2)cn1 (centres undefined) | – | – | – | – | inhibition [6]: 70%
8 | O=C(NC1CCC(=Cc2cccc(Oc3ccc(C(F)(F)F)cn3)c2)CC1)c1ccc(-n2nccn2)nc1 (racemic) | 0.04 | 0.09 | – | – | –
9 | O=C(N[C@H]1CC/C(=C/c2cccc(Oc3ccc(C(F)(F)F)cn3)c2)CC1)c1cccnc1 (centres undefined) | – | – | 414 | – | –
10 | O=C(NC1CCC(=Cc2cccc(Oc3ccc(C(F)(F)F)cn3)c2)CC1)c1ccncc1 (racemic) | – | – | – | – | inhibition [7]: 15%
11 | Nc1ccc(C(=O)N[C@H]2CC/C(=C/c3cccc(Oc4ccc(C(F)(F)F)cn4)c3)CC2)cn1 (centres undefined) | – | – | 450 | – | –
12 | Cc1cc(C(=O)NC2CCC(=Cc3cccc(Oc4ccc(C(F)(F)F)cn4)c3)CC2)cnc1N (centres undefined) | – | – | – | – | Activity [8]: Active; Activity [9]: Active; Activity [10]: Active; Activity [11]: inactive
13 | O=C(NC1CCC(=Cc2cccc(Oc3ccc(C(F)(F)F)cn3)c2)CC1)c1cc[nH]n1 (racemic) | – | – | – | 266 | –
14 | O=C(Nc1cccnn1)N1CCC(=Cc2cccc(Oc3ccc(C(F)(F)F)cn3)c2)CC1 | – | – | 1.8 | 5.7 | Activity [12]: Active
15 | Nc1ncc(C(=O)NC2CCC(=Cc3cccc(Oc4ccc(C(F)(F)F)cn4)c3)CC2)cn1 (centres undefined) | – | – | – | – | Activity [8]: Active; Activity [9]: Active; Activity [10]: Active; Activity [11]: inactive
16 | O=C(NC1CCC(=Cc2cccc(Oc3ccc(C(F)(F)F)cn3)c2)CC1)c1ccc(-n2cccn2)nc1 (racemic) | 0.09 | 0.11 | 6.7 | 6.6 | bioavailability [13]: 1.2%; Vd [14]: 4.6 L/kg; AUC(0-t) at 48 h [15]: 0.9 µM·h; Cmax [16]: 90 nM; half-life [17]: > 10 h; AUC(0-t) at 48 h [18]: 8 µM·h; clearance [19]: 2.4 mL/min/kg
17 | Cc1cc(C(=O)NC2CCC(=Cc3cccc(Oc4ccc(C(F)(F)F)cn4)c3)CC2)cnc1N (racemic) | 0.04 | 0.09 | – | – | –
18 | Nc1ccc(C(=O)NC2CCC(=Cc3cccc(Oc4ccc(C(F)(F)F)cn4)c3)CC2)cn1 (racemic) | 0.05 | 0.07 | – | 31.3 | –
19 | O=C(NC1CCC(=Cc2cccc(Oc3ccc(C(F)(F)F)cn3)c2)CC1)c1cccnc1 (centres undefined) | – | – | – | – | inhibition [6]: 60%
20 | COc1cccc([C@@]2(O)CCCC[C@@H]2CN(C)C)c1 | – | – | – | – | Activity [20]: Active
21 | Cc1cc(C(=O)N[C@H]2CC/C(=C/c3cccc(Oc4ccc(C(F)(F)F)cn4)c3)CC2)cnc1N (centres undefined) | – | – | 227 | 2300 | –
22 | O=C(NC1CCC(=Cc2cccc(Oc3ccc(C(F)(F)F)cn3)c2)CC1)c1cccnn1 (racemic) | – | – | 9 | – | –
23 | Nc1ncc(C(=O)NC2CCC(=Cc3cccc(Oc4ccc(C(F)(F)F)cn4)c3)CC2)cn1 (racemic) | 0.02 | 0.03 | 2 | – | –
24 | O=C(NC1CCC(=Cc2cccc(Oc3ccc(C(F)(F)F)cn3)c2)CC1)c1cn[nH]c1 (racemic) | < 0.04 | 0.04 | – | 64.6 | –
25 | O=C(Nc1cccnc1)N1CCC(Cc2cccc(Oc3ccc(C(F)(F)F)cn3)c2)CC1 | – | – | 2.6 | 11.5 | Activity [21]: 40.4%; Activity [22]: 77.2%; Activity [23]: 100%; Activity [24]: 20%; Activity [25]: 54.4%; Activity [5]: inactive
26 | O=C(NC1CCC(=Cc2cccc(Oc3ccc(C(F)(F)F)cn3)c2)CC1)c1cnc2[nH]ccc2c1 (racemic) | 0.04 | 0.08 | – | 17.2 | Cmax [26]: 190 nM; Vd [14]: 1 L/kg; bioavailability [27]: 7.2%; AUC(0-t) at 48 h [28]: 3 µM·h; half-life [17]: 7.3 h; AUC(0-t) at 48 h [18]: 14.3 µM·h; clearance [19]: 2.2 mL/min/kg
